According to US9765075B2, “Substituted bridged urea analogs as sirtuin modulators” (GLAXOSMITHKLINE LLC, priority 2013, dated 2017):
Where a chain is given by its changes, count along the chain named. Structures can show the parent of a compound that is named as a salt.

Key:
Experiment in all cases: SIRT1 inhibition assay, OAcADPr mass spectrometry
Format in all cases: biochemical
full-length hSIRT1 E230Q = molecular target: T1, full-length hSIRT1 E230Q (Homo sapiens, UniProt Q96EB6, E230Q)
T1 construct: His6 (C); made in house
T1 sequence (Q96EB6 1-747 E230Q): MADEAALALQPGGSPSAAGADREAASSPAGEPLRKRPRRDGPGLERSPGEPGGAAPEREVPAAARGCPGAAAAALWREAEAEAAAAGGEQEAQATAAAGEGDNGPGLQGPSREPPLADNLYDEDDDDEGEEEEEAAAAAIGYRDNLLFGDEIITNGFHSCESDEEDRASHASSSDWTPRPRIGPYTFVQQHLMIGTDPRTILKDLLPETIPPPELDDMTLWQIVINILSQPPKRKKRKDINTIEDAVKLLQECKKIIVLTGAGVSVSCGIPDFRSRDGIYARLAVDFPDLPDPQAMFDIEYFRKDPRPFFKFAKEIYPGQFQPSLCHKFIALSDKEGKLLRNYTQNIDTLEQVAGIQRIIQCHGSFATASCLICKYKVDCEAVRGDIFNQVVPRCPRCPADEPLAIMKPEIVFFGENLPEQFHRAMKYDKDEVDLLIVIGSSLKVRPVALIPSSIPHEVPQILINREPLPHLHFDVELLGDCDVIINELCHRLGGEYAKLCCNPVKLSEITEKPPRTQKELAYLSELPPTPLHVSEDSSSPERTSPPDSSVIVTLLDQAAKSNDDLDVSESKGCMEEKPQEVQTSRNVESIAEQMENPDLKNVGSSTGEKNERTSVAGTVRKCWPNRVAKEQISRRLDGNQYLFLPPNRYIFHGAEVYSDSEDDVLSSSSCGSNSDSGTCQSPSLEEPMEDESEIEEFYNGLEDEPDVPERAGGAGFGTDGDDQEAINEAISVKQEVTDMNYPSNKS
Description: (§1) SIRT1 activation and inhibition assays were run in reaction buffer with 0.05% BSA at 25° C. and analyzed using the OAcADPr assay. Enzyme and compound were pre-incubated for 20 minutes before addition of substrates.

[1] = molecular target: T2, full-length hSIRT1 wild-type (Homo sapiens, UniProt Q96EB6)
T2 construct: Full-length human SIRT1 (hSIRT1) proteins were expressed with a C-terminal His6 tag; His6 (C); made in house
T2 sequence (Q96EB6 1-747): T1 sequence (Q96EB6 1-747 E230Q) with Q230E
Description: as §1

full-length hSIRT1 T219A = molecular target: T3, full-length hSIRT1 T219A (Homo sapiens, UniProt Q96EB6, T219A)
T3 construct: The following point mutants of full-length hSIRT1 were generated; His6 (C); made in house
T3 sequence (Q96EB6 1-747 T219A): T1 sequence (Q96EB6 1-747 E230Q) with T219A, Q230E
Description: as §1

## CCCC[C@H](NC(=O)[C@H](CC(C)C)NC(=O)[C@H](CCCCNC(=O)C(F)(F)F)NC(=O)[C@H](CCCCN)NC(=O)[C@H](Cc1c[nH]cn1)NC(=O)[C@H](CCCNC(=N)N)NC(C)=O)C(=O)N[C@@H](Cc1ccccc1)C(N)=O [TFA-p53 7-mer, Ac-RHK-K^TFA-L-Nle-F-NH2]
full-length hSIRT1 E230Q
  IC50: 860 ± 60 nM
[1]
  IC50: 680 ± 70 nM
full-length hSIRT1 T219A
  IC50: 490 ± 20 nM
